# Results reported in patent US10975080B2, “Compounds and compositions for inhibiting the activity of SHP2” (NOVARTIS AG, priority 2015, dated 2021).
# Target: SHP2 (Homo sapiens (Human), UniProt Q06124)
# Assay: SHP2 Allosteric Inhibition Assay
# Assay type: biochemical
# Settings: 0.5 nM SHP2 with 0.5 μM peptide IRS1_pY1172(dPEG8)pY1222; surrogate substrate DiFMUP; 25° C.; read-out: SHP2 IC50
# From the text: SHP2 Allosteric Inhibition Assay
# SHP2 is allosterically activated through binding of bis-tyrosyl-phosphorylated peptides to its Src Homology 2 (SH2) domains. The latter activation step leads to the release of the auto-inhibitory interface of SHP2, which in turn renders the SHP2 protein tyrosine phosphatase (PTP) active and available for substrate recognition and reaction catalysis. The catalytic activity of SHP2 was monitored using the surrogate substrate DiFMUP in a prompt fluorescence assay format.
# After 30-60 minutes incubation at 25° C., the surrogate substrate DiFMUP (Invitrogen, cat #D6567) was added to the reaction and incubated at 25° C. for 30 minutes. […] The inhibitor dose response curves were analyzed using normalized IC50 regression curve fitting with control based normalization.
row,Compound,IC50 [µM]
1,"COc1ccc(-c2n[nH]c3nc(N4CCC5(CC4)CO[C@@H](C)[C@H]5N)n(C)c(=O)c23)cn1 [Example 64, 6-((3S,4S)-4-amino-3-methyl-2-oxa-8-azaspiro[4.5]decan-8-yl)-3-(6-methoxypyridin-3-yl)-5-methyl-1,5-dihydro-4H-pyrazolo[3,4-d]pyrimidin-4-one]",0.024
2,"C[C@@H]1OCC2(CCN(c3nc4[nH]nc(-c5cc(F)cc(F)c5)c4c(=O)n3C)CC2)[C@@H]1N [Example 65, 6-((3S,4S)-4-amino-3-methyl-2-oxa-8-azaspiro[4.5]decan-8-yl)-3-(3,5-difluorophenyl)-5-methyl-1,5-dihydro-4H-pyrazolo[3,4-d]pyrimidin-4-one]",0.038
3,"COc1ccccc1-c1n[nH]c2nc(N3CCC4(CC3)CO[C@@H](C)[C@H]4N)n(C)c(=O)c12 [Example 66, 6-((3S,4S)-4-amino-3-methyl-2-oxa-8-azaspiro[4.5]decan-8-yl)-3-(2-methoxyphenyl)-5-methyl-1,5-dihydro-4H-pyrazolo[3,4-d]pyrimidin-4-one]",0.091
4,"Cc1ncccc1-c1n[nH]c2nc(N3CCC4(CC3)CO[C@@H](C)[C@H]4N)n(C)c(=O)c12 [Example 67, 6-((3S,4S)-4-amino-3-methyl-2-oxa-8-azaspiro[4.5]decan-8-yl)-5-methyl-3-(2-methylpyridin-3-yl)-1,5-dihydro-4H-pyrazolo[3,4-d]pyrimidin-4-one]",0.096
5,"COc1cccc(-c2n[nH]c3nc(N4CCC5(CC4)COC[C@H]5N)n(C)c(=O)c23)c1Cl [Example 68, (S)-6-(4-amino-2-oxa-8-azaspiro[4.5]decan-8-yl)-3-(2-chloro-3-methoxyphenyl)-5-methyl-1,5-dihydro-4H-pyrazolo[3,4-d]pyrimidin-4-one]",0.025
6,"Cn1c(N2CCC3(CC2)COC[C@H]3N)nc2[nH]nc(-c3ccncc3)c2c1=O [Example 69, (S)-6-(4-amino-2-oxa-8-azaspiro[4.5]decan-8-yl)-5-methyl-3-(pyridin-4-yl)-1,5-dihydro-4H-pyrazolo[3,4-d]pyrimidin-4-one]",0.039
7,"CCNc1nccc(-c2n[nH]c3nc(N4CCC5(CC4)CO[C@@H](C)[C@H]5N)n(C)c(=O)c23)c1Cl [Example 72, 6-((3S,4S)-4-amino-3-methyl-2-oxa-8-azaspiro[4.5]decan-8-yl)-3-(3-chloro-2-(ethylamino)pyridin-4-yl)-5-methyl-1,5-dihydro-4H-pyrazolo[3,4-d]pyrimidin-4-one]",0.047
8,"C[C@H]1C[C@@H](N)C2(CCN(c3nc4[nH]nc(-c5ccnc(N(C)C)c5Cl)c4c(=O)n3C)CC2)C1 [Example 73, 6-((1R,3R)-1-amino-3-methyl-8-azaspiro[4.5]decan-8-yl)-3-(3-chloro-2-(dimethylamino)pyridin-4-yl)-5-methyl-1,5-dihydro-4H-pyrazolo[3,4-d]pyrimidin-4-one]",0.028
9,"C[C@@H]1OCC2(CCN(c3nc4[nH]nc(-c5ccnc(NCC6CC6)c5Cl)c4c(=O)n3C)CC2)[C@@H]1N [Example 74, 6-((3S,4S)-4-amino-3-methyl-2-oxa-8-azaspiro[4.5]decan-8-yl)-3-(3-chloro-2-((cyclopropylmethyl)amino)pyridin-4-yl)-5-methyl-1,5-dihydro-4H-pyrazolo[3,4-d]pyrimidin-4-one]",0.039
10,"C[C@H]1C[C@@H](N)C2(CCN(c3nc4[nH]nc(-c5ccnc(N)c5Cl)c4c(=O)n3C)CC2)C1 [Example 76, 3-(2-amino-3-chloropyridin-4-yl)-6-((1R,3R)-1-amino-3-methyl-8-azaspiro[4.5]decan-8-yl)-5-methyl-1,5-dihydro-4H-pyrazolo[3,4-d]pyrimidin-4-one]",0.032
11,"CNc1nccc(-c2n[nH]c3nc(N4CCC5(CC4)C[C@@H](C)C[C@H]5N)n(C)c(=O)c23)c1Cl [Example 77, 6-((1R,3R)-1-amino-3-methyl-8-azaspiro[4.5]decan-8-yl)-3-(3-chloro-2-(methylamino)pyridin-4-yl)-5-methyl-1,5-dihydro-4H-pyrazolo[3,4-d]pyrimidin-4-one]",0.03
12,"C[C@@H]1OCC2(CCN(c3nc4[nH]nc(-c5cc(Cl)ncc5Cl)c4c(=O)n3C)CC2)[C@@H]1N [Example 79, 6-((3S,4S)-4-amino-3-methyl-2-oxa-8-azaspiro[4.5]decan-8-yl)-3-(2,5-dichloropyridin-4-yl)-5-methyl-1,5-dihydro-4H-pyrazolo[3,4-d]pyrimidin-4-one]",0.03
13,"C[C@@H]1OCC2(CCN(c3nc4[nH]nc(-c5cc(N)ncc5Cl)c4c(=O)n3C)CC2)[C@@H]1N [Example 80, 6-((3S,4S)-4-amino-3-methyl-2-oxa-8-azaspiro[4.5]decan-8-yl)-3-(2-amino-5-chloropyridin-4-yl)-5-methyl-1,5-dihydro-4H-pyrazolo[3,4-d]pyrimidin-4-one]",0.129
14,"C[C@@H]1OCC2(CCN(c3nc4[nH]nc(Sc5ccnc(N)c5Cl)c4c(=O)n3C)CC2)[C@@H]1N [Example 84, 3-((2-amino-3-chloropyridin-4-yl)thio)-6-((3S,4S)-4-amino-3-methyl-2-oxa-8-azaspiro[4.5]decan-8-yl)-5-methyl-1,5-dihydro-4H-pyrazolo[3,4-d]pyrimidin-4-one]",0.027
15,"C[C@@H]1OCC2(CCN(c3cnc4c(-c5ccnc(Cl)c5Cl)n[nH]c4n3)CC2)[C@@H]1N [Example 85, (3S,4S)-8-(3-(2,3-dichloropyridin-4-yl)-1H-pyrazolo[3,4-b]pyrazin-6-yl)-3-methyl-2-oxa-8-azaspiro[4.5]decan-4-amine]",0.067

# The next compounds have a lower IC50 than those just listed; values first:
row,IC50 [µM],Compound
1,0.013,"COc1ccc(-c2n[nH]c3nc(N4CCC5(CC4)CO[C@@H](C)[C@H]5N)n(C)c(=O)c23)cc1F [Example 59, 6-((3S,4S)-4-amino-3-methyl-2-oxa-8-azaspiro[4.5]decan-8-yl)-3-(3-fluoro-4-methoxyphenyl)-5-methyl-1,5-dihydro-4H-pyrazolo[3,4-d]pyrimidin-4-one]"
2,0.013,"C[C@@H]1OCC2(CCN(c3nc4[nH]nc(-c5cccc(F)c5F)c4c(=O)n3C)CC2)[C@@H]1N [Example 60, 6-((3S,4S)-4-amino-3-methyl-2-oxa-8-azaspiro[4.5]decan-8-yl)-3-(2,3-difluorophenyl)-5-methyl-1,5-dihydro-4H-pyrazolo[3,4-d]pyrimidin-4-one]"
3,0.014,"C[C@@H]1OCC2(CCN(c3nc4[nH]nc(-c5cccc(F)c5)c4c(=O)n3C)CC2)[C@@H]1N [Example 61, 6-((3S,4S)-4-amino-3-methyl-2-oxa-8-azaspiro[4.5]decan-8-yl)-3-(3-fluorophenyl)-5-methyl-1,5-dihydro-4H-pyrazolo[3,4-d]pyrimidin-4-one]"
4,0.017,"C[C@@H]1OCC2(CCN(c3nc4[nH]nc(-c5cc(F)ccc5F)c4c(=O)n3C)CC2)[C@@H]1N [Example 62, 6-((3S,4S)-4-amino-3-methyl-2-oxa-8-azaspiro[4.5]decan-8-yl)-3-(2,5-difluorophenyl)-5-methyl-1,5-dihydro-4H-pyrazolo[3,4-d]pyrimidin-4-one]"
5,0.023,"C[C@@H]1OCC2(CCN(c3nc4[nH]nc(-c5ccccc5F)c4c(=O)n3C)CC2)[C@@H]1N [Example 63, 6-((3S,4S)-4-amino-3-methyl-2-oxa-8-azaspiro[4.5]decan-8-yl)-3-(2-fluorophenyl)-5-methyl-1,5-dihydro-4H-pyrazolo[3,4-d]pyrimidin-4-one]"
6,0.008,"C[C@@H]1OCC2(CCN(c3nc4[nH]nc(-c5ccncc5)c4c(=O)n3C)CC2)[C@@H]1N [Example 70, 6-((3S,4S)-4-amino-3-methyl-2-oxa-8-azaspiro[4.5]decan-8-yl)-5-methyl-3-(pyridin-4-yl)-1,5-dihydro-4H-pyrazolo[3,4-d]pyrimidin-4-one]"
7,0.022,"C[C@@H]1OCC2(CCN(c3nc4[nH]nc(-c5ccnc(N(C)C)c5Cl)c4c(=O)n3C)CC2)[C@@H]1N [Example 71, 6-((3S,4S)-4-amino-3-methyl-2-oxa-8-azaspiro[4.5]decan-8-yl)-3-(3-chloro-2-(dimethylamino)pyridin-4-yl)-5-methyl-1,5-dihydro-4H-pyrazolo[3,4-d]pyrimidin-4-one]"
8,0.017,"Cc1c(-c2n[nH]c3nc(N4CCC5(CC4)CO[C@@H](C)[C@H]5N)n(C)c(=O)c23)ccnc1Cl [Example 78, 6-((3S,4S)-4-amino-3-methyl-2-oxa-8-azaspiro[4.5]decan-8-yl)-3-(2-chloro-3-methylpyridin-4-yl)-5-methyl-1,5-dihydro-4H-pyrazolo[3,4-d]pyrimidin-4-one]"
9,0.008,"Cn1c(N2CCC(C)(CN)CC2)nc2[nH]nc(Sc3cccc(Cl)c3Cl)c2c1=O [Example 83, 6-(4-(aminomethyl)-4-methylpiperidin-1-yl)-3-((2,3-dichlorophenyl)thio)-5-methyl-1,5-dihydro-4H-pyrazolo[3,4-d]pyrimidin-4-one]"
